Measured values: patent US20240299353A1, “COMPOSITIONS AND METHODS FOR TREATING […] 5-MEO-DMT” (Alvarius Pharmaceuticals Ltd., priority 2021, published 2024)

How the values were obtained:
[1] = tested on: primary hippocampal neurons; assay: Antagonist pre-treatment studies of neuronal structural change, Sholl analysis; type: cell-based, rat; conditions: for neuronal structural complexity (normalised AUC): meta-analysis
Description: Primary hippocampal cultures were grown on 18 mm glass coverslips at a density of 1×10^6 cells as described. On 3 DIV all cells underwent a full medium change. […] On 4 DIV, all cells underwent a second full medium change. Cells in the combination group were treated with 2 μM 5-MeO-DMT for a further 24 hours with all other groups beginning a 24-hour treatment. After treatment was completed the cells were fixed and processed as described below.
Based on the findings with other psychedelic drugs that share structural and behavioral similarities to 5-MeO-DMT we selected ANA-12 (Sigma), an antagonist of TrkB, the BDNF receptor, and rapamycin (ThermoFischer) an antagonist of the mammalian target of rapamycin (mTOR). Due to the affinity and known behavioral change induced by 5-MeO-DMT at the 5-HT1AR and 5-HT2AR we assessed their contribution to structural changes mediated by 5-MeO-DMT. The receptors were antagonized with WAY-100635 maleate (Tocris) or Ketanserin (Axxora), respectively. For all antagonist studies the antagonist under investigation was added 15 mins prior to drug treatment. […] ANA-12, Ketanserin and rapamycin were dissolved in dimethyl sulfoxide (DMSO) with a final concentration of 0.01-0.04% for treatment. WAY100635 was dissolved in sterile dH2O.
After termination of drug treatment coverslips were processed and imaged as outlined for immunocytochemistry. In all instances NeuN antibody staining was used to visualize projections from the cell body. Images were analyzed using the Simple Neurite Tracer and Sholl analysis plug-ins for ImageJ Fiji. For the Sholl analysis circle radii of 2 μm increments were used. All images were taken and analyzed by an experimenter blinded to treatment conditions.
Statistical Analysis—Data are represented as mean±SEM. Statistical analyses were performed using GraphPad Prism (version 5). For analyses involving comparison of three or more groups, a one-way ANOVA with Bonferroni's post-hoc test was utilized where appropriate. No statistics were calculated for the individual points of the Sholl plots, instead, statistical analyses were performed on the aggregate data, the area under the curve (AUC) of the Sholl plot. Secondary measurements were the Nmax, the maximum number of intersections measured by the Sholl analysis, which indicated the number of projections emanating from a neuron and the average length of primary neurites originating from the cell soma.

hippocampal proteins = assay: Hippocampal LC-MS/MS proteomics, chronic cocaine with single psychedelic administration; type: in vivo, Male Wister rats; conditions: for differential expression of proteins in the control hippocampus: single i.p. dose (5-MeO-DMT 5 mg/kg, LSD 0.14 mg/kg, psilocybin 1 mg/kg, DOI 1 mg/kg) vs saline-saline, p<0.05, FC ±20%; for differential expression of proteins in the chronic cocaine hippocampus: single i.p. dose after 14 days cocaine 20 mg/kg (5-MeO-DMT 5, LSD 0.14, psilocybin 1, DOI 1 mg/kg) vs cocaine-saline; for reversal of chronic cocaine mediated proteomic changes in the hippocampus: single treatment (5-MeO-DMT 5, LSD 0.14, psilocybin 1, DOI 1 mg/kg i.p.)
Description: (§1) Animals were then randomly allocated to one of five groups and received a single i.p. injection of one of vehicle, 5 mg/kg 5-Meo-DMT, 0.14 mg/kg LSD, 1 mg/kg psilocybin, or 1 mg/kg DOI. On day 15, animals were euthanised and the hippocampus blunt dissected, snap frozen in liquid nitrogen and stored at −80° C. until further processing.
Protein from hippocampal tissue was processed for liquid chromatography tandem Mass Spectrometry (LC-MS/MS). Samples were run on a Thermo Scientific Q Exactive Mass Spectrometer connected to a Dionex Ultimate 3000 (RSLCnano) chromatography system in the UCD Conway Institute Core Mass Spectrometry Facility. Peptide and protein identification of MS/MS spectra were searched against the rat UniProt database using carbamidomethylation (C) as a fixed modification and acetylation (protein N terminus) and oxidation (M) as variable modifications with a false discovery rate filtering of 0.01. MaxQuant was using to generate label-free quantitative (LFQ) ion intensities and the Perseus statistical software contained in the MaxQuant package was used to analyse LFQ ion intensity. Statistical significance (p<0.05, FC±20%) of mean LFQ intensity between treatment groups was determined by two sample t-test. […] Networks were visualised using the stringApp (version 1.6.0) plugin for the Cytoscape software platform (version 3.8.2).

[2] = tested on: top 10 cocaine-dysregulated biological pathways in the hippocampus; assay: Biological pathway analysis (IPA) of transcriptomics, cocaine-dysregulated pathways; type: in vivo, Male Wister rats; conditions: single treatment
Description: as §1
Subsequent pathway analyses were done using Ingenuity Pathway Analysis (IPA). Analysis settings for IPA included the Ingenuity Knowledge Base (Genes Only), direct and indirect relationships, and endogenous chemicals of the previously filtered list of differentially expressed genes. IPA was filtered to only consider molecules where the species were human, rat, or mouse and the confidence can be experimentally observed. Canonical pathways were utilized in pathway analysis, where the spreadsheet organized the values of significance to −log(p-value) and the rate of regulation to the z-score. Negative z-score values indicate downregulation and positive values indicate upregulation.

5-HT2AR = 5-HT2AR (Homo sapiens, UniProt P28223); conditions: metabolite of 5-MeO-DMT; cited from earlier work
[3] = ketanserin 100 μM treated groups relative to control

5-HT2AR, sequence (P28223 whole entry): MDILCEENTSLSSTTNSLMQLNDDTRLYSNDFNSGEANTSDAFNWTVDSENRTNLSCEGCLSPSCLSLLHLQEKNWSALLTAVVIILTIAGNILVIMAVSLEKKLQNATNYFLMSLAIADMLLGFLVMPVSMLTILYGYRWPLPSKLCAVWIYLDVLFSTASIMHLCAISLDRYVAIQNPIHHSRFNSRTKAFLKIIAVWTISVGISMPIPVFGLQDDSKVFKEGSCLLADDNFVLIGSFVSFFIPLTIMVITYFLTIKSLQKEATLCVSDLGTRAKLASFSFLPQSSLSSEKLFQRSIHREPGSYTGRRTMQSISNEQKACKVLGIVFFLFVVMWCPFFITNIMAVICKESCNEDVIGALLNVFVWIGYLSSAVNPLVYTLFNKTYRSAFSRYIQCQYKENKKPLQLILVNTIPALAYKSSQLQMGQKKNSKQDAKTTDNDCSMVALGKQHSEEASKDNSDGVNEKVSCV

O=C(Nc1ccccc1C(=O)NC1CCCCNC1=O)c1cc2ccccc2s1 (stereo not drawn) [ANA-12]
average neurite length ([1]; ANA-12 10 μM pre-treatment, 5-MeO-DMT-induced increase): blocked | AUC of the Sholl plot ([1]; ANA-12 10 μM, 15 min pre-treatment before 5-MeO-DMT, cocaine or combination): prevented the 5-Meo-, cocaine- or combination-induced increase in AUC | maximum number of intersections (Nmax) ([1]; ANA-12 pre-treated combination group relative to vehicle pre-treated combination group): significantly reduced | AUC of the Sholl plot ([1]; control+ANA-12 vs control+vehicle (basal complexity)): no difference in AUC | neuronal structural complexity (normalised AUC) ([1]; ANA-12 pre-treatment): prevented the 5-Meo-, cocaine- or combination-induced increase in complexity

COc1cc(CC(C)N)c(OC)cc1I (stereo not drawn) [DOI, 2,5-Dimethoxy-4-iodoamphetamine]
differential expression of proteins in the control hippocampus (hippocampal proteins): 79 proteins | differential expression of proteins in the chronic cocaine hippocampus (hippocampal proteins): 55 proteins | reversal of chronic cocaine mediated proteomic changes in the hippocampus (hippocampal proteins): 70%

O=C(c1ccc(F)cc1)C1CCN(CCn2c(=O)[nH]c3ccccc3c2=O)CC1 [Ketanserin]
average neurite length [1, 3]: significantly decreased | maximum number of intersections (Nmax) [1, 3]: significantly reduced | normalised AUC of the Sholl plot ([1]; ketanserin 100 μM, 15 min pre-treatment, all treatment groups): significantly reduced normalised AUC across all treatment groups | neuronal structural complexity (normalised AUC) ([1]; ketanserin pre-treatment): significantly reduced normalised AUC across all treatment groups

CCN(CC)C(=O)[C@@H]1C=C2c3cccc4[nH]cc(c34)C[C@H]2N(C)C1 [LSD, Lysergic acid diethylamide]
differential expression of proteins in the control hippocampus (hippocampal proteins): 73 proteins | differential expression of proteins in the chronic cocaine hippocampus (hippocampal proteins): 57 proteins | reversal of chronic cocaine mediated proteomic changes in the hippocampus (hippocampal proteins): 59% | number of the top 10 dysregulated pathways corrected [2]: 5 pathways | top 10 cocaine-dysregulated biological pathways corrected [2]: 50%

COc1ccccc1N1CCN(CCN(C(=O)C2CCCCC2)c2ccccn2)CC1.O=C(O)/C=C\C(=O)O [WAY100635, WAY-100635 maleate]
average neurite length ([1]; WAY100635 100 nM pre-treatment before 5-MeO-DMT): prevented the 5-Meo-mediated increase in neurite length | maximum number of intersections (Nmax) ([1]; WAY100635 100 nM treated groups relative to vehicle treated pairings): significantly reduced | normalised AUC of the Sholl plot ([1]; WAY100635 100 nM, 15 min pre-treatment before 5-MeO-DMT or cocaine): prevented the 5-Meo- and cocaine-induced increase in normalised AUC | neuronal structural complexity (normalised AUC) ([1]; WAY100635 pre-treatment): prevented the increase in complexity mediated by all treatments

CN(C)CCc1c[nH]c2ccc(O)cc12 [bufotenine, 5-hydroxy,N,Ndimethyltryptamine]
affinity for the 5-HT2AR relative to the parent compound (5-HT2AR): much higher affinity for the 5-HT2AR than the parent compound

CN(C)CCc1c[nH]c2cccc(OP(=O)(O)O)c12 [psilocybin, Psilocybin]
differential expression of proteins in the control hippocampus (hippocampal proteins): 91 proteins | differential expression of proteins in the chronic cocaine hippocampus (hippocampal proteins): 45 proteins | reversal of chronic cocaine mediated proteomic changes in the hippocampus (hippocampal proteins): 74% | number of the top 10 dysregulated pathways corrected [2]: 7 pathways | top 10 cocaine-dysregulated biological pathways corrected [2]: 70%
